# Patent US11427556B2, “Urea derivatives as inhibitors of ASK1” (Hepagene Therapeutics (HK) Limited, priority 2017, dated 2022)
# Molecular target: T1, Recombinant human ASK1 kinase (Homo sapiens, UniProt Q99683)
# T1 construct: purchased Invitrogen Inc
# T1 sequence (Q99683 1-1374): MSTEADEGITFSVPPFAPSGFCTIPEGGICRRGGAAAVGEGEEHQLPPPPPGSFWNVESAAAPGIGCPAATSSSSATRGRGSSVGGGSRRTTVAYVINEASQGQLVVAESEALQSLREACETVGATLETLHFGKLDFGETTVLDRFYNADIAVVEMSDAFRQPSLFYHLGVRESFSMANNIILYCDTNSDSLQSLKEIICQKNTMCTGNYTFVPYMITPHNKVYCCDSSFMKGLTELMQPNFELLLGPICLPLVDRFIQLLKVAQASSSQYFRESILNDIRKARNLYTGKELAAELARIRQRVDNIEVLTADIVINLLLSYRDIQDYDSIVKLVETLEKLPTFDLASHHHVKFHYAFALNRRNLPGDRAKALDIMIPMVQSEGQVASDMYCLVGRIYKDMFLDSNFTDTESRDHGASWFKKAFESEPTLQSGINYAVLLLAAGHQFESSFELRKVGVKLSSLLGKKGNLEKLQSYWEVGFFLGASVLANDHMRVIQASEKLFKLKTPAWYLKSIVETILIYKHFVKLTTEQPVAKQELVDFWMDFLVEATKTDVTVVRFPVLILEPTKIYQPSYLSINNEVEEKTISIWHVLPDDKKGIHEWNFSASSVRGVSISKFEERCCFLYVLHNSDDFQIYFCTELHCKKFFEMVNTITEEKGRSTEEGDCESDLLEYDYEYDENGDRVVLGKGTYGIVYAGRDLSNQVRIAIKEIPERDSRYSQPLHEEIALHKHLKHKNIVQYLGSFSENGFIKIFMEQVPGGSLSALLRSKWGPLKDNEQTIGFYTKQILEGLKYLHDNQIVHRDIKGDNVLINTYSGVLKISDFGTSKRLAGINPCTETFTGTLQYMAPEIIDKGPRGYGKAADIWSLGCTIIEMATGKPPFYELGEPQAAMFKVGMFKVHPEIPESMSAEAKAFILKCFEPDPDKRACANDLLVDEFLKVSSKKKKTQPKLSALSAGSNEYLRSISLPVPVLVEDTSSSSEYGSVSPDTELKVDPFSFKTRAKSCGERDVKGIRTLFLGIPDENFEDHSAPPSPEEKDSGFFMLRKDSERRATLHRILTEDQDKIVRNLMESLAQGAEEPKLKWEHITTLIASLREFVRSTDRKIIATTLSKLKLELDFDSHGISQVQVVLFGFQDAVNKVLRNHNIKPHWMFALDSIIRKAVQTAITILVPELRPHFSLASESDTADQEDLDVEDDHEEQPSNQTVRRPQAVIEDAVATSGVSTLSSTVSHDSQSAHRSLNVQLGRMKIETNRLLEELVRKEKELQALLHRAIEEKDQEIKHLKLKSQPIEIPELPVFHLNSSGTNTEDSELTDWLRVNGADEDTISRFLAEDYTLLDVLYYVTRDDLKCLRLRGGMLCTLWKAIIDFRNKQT
# Test: ASK1 kinase HTRF assay (HTRF KinEASE-STK, phosphorylation of biotinylated peptide substrate)
# Type: biochemical
# Settings: not given
# Description: Reagents: Recombinant human ASK1 kinase was from Invitrogen Inc. HTRF KinEASETM-STK S3 kit was obtained from Cisbio (Bedford, Mass.). All other reagents were of the highest grade commercially available.
# Assay: The assay measures the phosphorylation level of a biotinylatd peptide substrate by the ASK1 kinase using HTRF detection. ASK1 kinase assay is based on HTRF KinEASETM-STK manual from Cisbio. Test compound, 1 uM STK-substrate-biotin, 3 nM of ASK1 kinase are incubated with 1*Kinase buffer with 5 mM MgCl2 and 1 mM DTT.
row,SMILES,EC50 [nM]
1,C[C@H](CO)n1cnnc1-c1cccc(NC(=O)Nc2cc(C(=O)N3CCCC3)ccn2)n1 [Compound I-146],< 50
2,CC(C)n1cnnc1-c1cccc(NC(=O)Nc2cc(C(=O)N3CCCC3)ccn2)n1 [Compound I-145],< 50

# Same assay, conditions: 3 nM ASK1 kinase, 1 uM STK-substrate-biotin, HTRF detection; read-out: EC50
row,SMILES,EC50 [nM]
1,"CC(C)n1cnnc1-c1cccc(-n2ccn(-c3ccc(C(=O)N4CCCCC4)cn3)c2=O)n1 [III-02, 1-(6-(4-Isopropyl-4H-1,2,4-triazol-3-yl)pyridin-2-yl)-3-(5-(piperidine-1-carbonyl)pyridin-2-yl)-1H-imidazol-2(3H)-one]",< 50
2,C[C@H](CO)n1cnnc1-c1cccc(NC(=O)Nc2cc(C(=O)N3CCCCCC3)ccn2)n1 [Compound I-148],< 50
3,CC(C)n1cnnc1-c1cccc(NC(=O)Nc2ccc(-c3cccnc3)cn2)n1 [Compound I-089],< 50
4,Cc1cccc(NC(=O)Nc2cccc(-c3nncn3C(C)C)n2)n1 [Compound I-040],< 50
5,CC(C)n1cnnc1-c1cccc(NC(=O)Nc2cc(C(=O)Nc3ccc(C(C)(C)C)cc3)ccn2)n1 [Compound I-160],< 50
6,CCC(C)n1cnnc1-c1cccc(NC(=O)Nc2ccccn2)n1 (stereo not drawn) [Compound I-028],< 50
7,"CC(C)n1cnnc1-c1cccc(NC(=O)Nc2cc(NC(=O)c3ccccc3)ccn2)n1 [Compound I-004, N-(2-(3-(6-(4-Isopropyl-4H-1,2,4-triazol-3-yl)pyridin-2-yl)ureido)pyridin-4-yl)benzamide]",< 50
8,CC(C)n1cnnc1-c1cccc(NC(=O)Nc2ccc(-c3ccccc3)cn2)n1 [Compound I-076],< 50
9,C[C@H](CO)n1cnnc1-c1cccc(N2CCN(c3ccc(N4CCOCC4)cn3)C2=O)n1 [Compound V-18],< 50
10,COc1cccnc1NC(=O)Nc1cccc(-c2nncn2C(C)C)n1 [Compound I-055],< 50
11,CC(C)n1cnnc1-c1cccc(NC(=O)Nc2ncccn2)n1 [Compound I-212],< 50
12,CC(C)n1cnnc1-c1cccc(NC(=O)Nc2cccc(C(F)(F)F)n2)n1 [Compound I-196],< 50
13,"CC(C)n1cnnc1-c1cccc(NC(=O)Nc2cc(NS(=O)(=O)c3ccccc3)ccn2)n1 [Compound I-015, 3-(4-Benzenesulfonamidopyridin-2-yl)-1-[6-[4-(propan-2-yl)-4H-1,2,4-triazol-3-yl]pyridin-2-yl]urea]",< 50
14,CC(C)n1cnnc1-c1cccc(NC(=O)Nc2cc(Cl)ccn2)n1 [Compound I-181],< 50
15,CC(C)n1cnnc1-c1cccc(NC(=O)Nc2cc(C(=O)N3CCC4(CCCCC4)CC3)ccn2)n1 [Compound I-128],< 50
16,CC(C)n1cnnc1-c1cccc(NC(=O)Nc2cc(C(=O)N3CCN(C)CC3)ccn2)n1 [Compound I-141],< 50
17,CC(C)n1cnnc1-c1cccc(NC(=O)Nc2cc(C(=O)N3CCC(C)(C)CC3)ccn2)n1 [Compound I-117],< 50
18,COc1ccnc(NC(=O)Nc2cccc(-c3nncn3C(C)C)n2)c1 [Compound I-052],< 50
19,"Cc1ccc(N(C)C(=O)Nc2cccc(-c3nncn3C(C)C)n2)c(F)c1 [II-01, 1-(2-Fluoro-4-methylphenyl)-3-(6-(4-isopropyl-4H-1,2,4-triazol-3-yl)pyridin-2-yl)-1-methylurea]",500 to 5000
20,Cc1ccc(NC(=O)Nc2cccc(-c3nncn3C(C)C)n2)c(F)c1 [Compound I-018],50 to 500
21,C[C@H](CO)n1cnnc1-c1cccc(N2CCN(c3ccc(-c4ccccc4)cn3)C2=O)n1 [Compound V-08],< 50
22,"CC(C)[C@H](N)C(=O)OC[C@@H](C)n1cnnc1-c1cccc(NC(=O)Nc2cc(C(=O)N3CCCCC3)ccn2)n1 [Compound I-013, (2R)-2-[3-[6-([[4-(Piperidine-1-carbonyl)pyridin-2-yl]carbamoyl]amino)pyridin-2-yl]-4H-1,2,4-triazol-4-yl]propyl (2S)-2-amino-3-methylbutanoate]",< 50
23,CC(C)n1cnnc1-c1cccc(NC(=O)Nc2cc(C(=O)Nc3ccc(-c4ccccc4)cc3)ccn2)n1 [Compound I-155],< 50
24,CC(C)n1cnnc1-c1cccc(NC(=O)Nc2cc(N3CCCC3)ccn2)n1 [Compound I-167],< 50
25,"C[C@H](CO)n1cnnc1-c1cccc(NC(=O)Nc2cc(C(=O)N3CCC(C)(C)CC3)ccn2)n1 [Compound I-007, (R)-1-(4-(4,4-Dimethylpiperidine-1-carbonyl)pyridin-2-yl)-3-(6-(4-(1-hydroxypropan-2-yl)-4H-1,2,4-triazol-3-yl)pyridin-2-yl)urea]",< 50

row,SMILES,EC50 [nM]
1,C[C@H](CO)n1cnnc1-c1cccc(-n2ccn(-c3ccc(-c4ccccc4)cn3)c2=O)n1 [III-07],< 50
2,C[C@H](CO)n1cnnc1-c1cccc(NC(=O)Nc2cc(C(=O)N3CCC[C@@H]4CCCC[C@H]43)ccn2)n1 [Compound I-126],< 50
3,CC(C)c1ccnc(NC(=O)Nc2cccc(-c3nncn3C(C)C)n2)c1 [Compound I-045],< 50
4,CC(C)n1cnnc1-c1cccc(NC(=O)Nc2cc(N3CCOCC3)ccn2)n1 [Compound I-094],< 50
5,C[C@H](CO)n1cnnc1-c1cccc(NC(=O)Nc2cc(Cl)ccn2)n1 [Compound I-182],< 50
6,CC(C)c1ccc(NC(=O)Nc2cccc(-c3nncn3C(C)C)n2)nc1 [Compound I-044],< 50
7,CC(C)n1cnnc1-c1cccc(NC(=O)Nc2cc(C(=O)Nc3cccc(F)c3)ccn2)n1 [Compound I-157],< 50
8,CC(C)n1cnnc1-c1cccc(NC(=O)Nc2cc(C(=O)Nc3ccccn3)ccn2)n1 [Compound I-161],< 50
9,CC(C)n1cnnc1-c1cccc(NC(=O)Nc2ccc(N3CCNCC3)cn2)n1 [Compound I-097],< 50
10,C[C@H](CO)n1cnnc1-c1cccc(NC(=O)Nc2cc(C(=O)Nc3ccncc3)ccn2)n1 [Compound I-164],< 50
11,CC(C)n1cnnc1-c1cccc(-n2ccn(-c3ccc(-c4ccccc4)cn3)c2=O)n1 [III-06],< 50
12,CC(C)n1cnnc1-c1cccc(N2CCN(c3ccc(N4CCOC[C@@H]4C)cn3)C2=O)n1 [Compound V-14],< 50
13,C[C@H](CO)n1cnnc1-c1cccc(NC(=O)Nc2cc(C(=O)N3C4CCCC3CC4)ccn2)n1 [Compound I-150],< 50
14,CC(C)n1cnnc1-c1cccc(NC(=O)Nc2ccc(C(F)(F)F)cn2)n1 [Compound I-195],< 50
15,"CC(C)n1cnnc1-c1cccc(NC(=O)Nc2cc(C(=O)N3CCc4ccccc4C3)ccn2)n1 [Compound I-006, 1-(6-(4-Isopropyl-4H-1,2,4-triazol-3-yl)pyridin-2-yl)-3-(4-(1,2,3,4-tetrahydroisoquinoline-2-carbonyl)pyridin-2-yl)urea]",< 50
16,C[C@H](CO)n1cnnc1-c1cccc(N2CCN(c3ccc(C(=O)N4CCNCC4)cn3)C2=O)n1 [Compound V-27],< 50
17,CC(C)n1cnnc1-c1cccc(NC(=O)Nc2ccc(O)cn2)n1 [Compound I-074],< 50
18,C[C@H](CO)n1cnnc1-c1cccc(NC(=O)Nc2cc(C3CCOCC3)ccn2)n1 [Compound I-092],< 50
19,C[C@H](CO)n1cnnc1-c1cccc(NC(=O)Nc2cc(C(=O)N3CCC(F)(F)CC3)ccn2)n1 [Compound I-144],< 50
20,Cc1ccc(NC(=O)Nc2cccc(-c3nncn3C3CC3)n2)nc1 [Compound I-034],50 to 500
21,Cc1cnc(NC(=O)Nc2cccc(-c3nncn3C(C)C)n2)nc1 [Compound I-211],< 50
22,CC(C)n1cnnc1-c1cccc(NC(=O)Nc2ccc(-c3ccccn3)cn2)n1 [Compound I-088],< 50
23,Cc1cnc(NC(=O)Nc2cccc(-c3nncn3C(C)C)n2)cn1 [Compound I-056],< 50
24,C[C@H](CO)n1cnnc1-c1cccc(NC(=O)Nc2nc3ccccc3o2)n1 [Compound I-217],< 50
